Counter-ions that a name gives are not always drawn. Like-named read-outs stand apart in the source and are kept apart here.

Data set [1] can be described thus: in vitro. The conditions noted are these: mouse.
Data set [2] concerns HCoV-NL63. Briefly: microbe, parasite or virus in culture. The note with it: Human coronavirus NL63, LLC-MK2, 72 h, read-out: HCoV-NL63 EC50.
Data set [3] deals with MHV-A59. Kind of data set: microbe, parasite or virus in culture. The note with it: Murine coronavirus, 72 h, read-out: MHV-A59 EC50.
Data set [4] deals with HCoV-OC43-WT. Further details: species or system BALB/c mice. The note with it: mouse.
Data set [5] concerns four CoVs (HCoV-OC43, HCoV-NL63, MERS-CoV, MHV-A59). Kind of data set: organism not typed. The class given is cell-based. The conditions noted are these: read-out: EC50 values against all CoVs.
For data set [6], the system named is BHK-21 cells. The note with it: hamster.
Data set [7] relates to LLC-MK2 cells. The conditions noted are these: rhesus monkey.
Data set [8] has as its system HCoV-NL63.
For data set [9], the system named is MHV-A59.
For data set [10], the system named is HCoV-OC43-WT. The note with it: read-out: HCoV-OC43 EC50.
Data set [11] concerns MERS-CoV. The note with it: read-out: MERS-CoV EC50.

In data set [1], `O=C(/C=C/c1ccccc1)c1ccc(O)cc1` [4'-Hydroxychalcone] yielded a CC50 above 20 µM. In addition, the concentration giving a half-maximal response (EC50) in data set [2] was found to be 7.25 µM; in [3], 9.75 µM.

Take `C=CCc1ccccc1OCC(O)CNC(C)C` (stereo not shown) [Alprenolol]: in [1], the CC50 was above 20 µM. The values for the 50% effective concentration (EC50) in data set [2] and in data set [3] were 11.9 µM and 14 µM, respectively.

`CCCCCC[C@H]1C(=O)O[C@H](C)[C@H](NC(=O)c2cccc(NC=O)c2O)C(=O)O[C@@H](C)[C@@H]1OC(=O)CC(C)C` [Antimycin A]: the CC50 in data set [1] came to 3.98 µM. Also, the EC50 in data set [2] amounted to 6.05 µM; in data set [3], 5.42 µM.

The compound `COc1cc2c3cc1Oc1c(OC)c(OC)cc4c1[C@@H](Cc1ccc(O)c(c1)Oc1ccc(cc1)C[C@@H]3N(C)CC2)N(C)CC4` [Berbamine] registered a CC50 in data set [1] above 20 µM. Besides, the EC50 was determined as 9.46 µM in data set [2] and 10.9 µM in data set [3].

`CN(C)CCN(Cc1ccc(Cl)cc1)c1ccccn1` [Chloropyramine] gave a CC50 in [1] above 20 µM. For the same compound, the EC50 in [2] is 14.2 µM; in data set [3], 2.42 µM.

In the case of `CCN(CC)CCCC(C)Nc1ccnc2cc(Cl)ccc12` (stereo not shown) [Chloroquine], the “antiviral activity in vivo, positive control” value in [4] was “showed antiviral activity”. In data set [1], this compound yielded a CC50 above 20 µM. Moreover, the EC50 worked out at 4.89 µM in data set [2] and 15.9 µM in data set [3].

`C[C@H]1[C@H]2CC[C@H]3[C@@H]4CC=C5C[C@@H](N(C)C)CC[C@]5(C)[C@H]4CC[C@]23CN1C` [Conessine] displayed a CC50 in [1] above 20 µM. The EC50 in [2] was 10.8 µM; in data set [3] it was 11.5 µM.

The compound `C[C@@H]1C[C@@H]([C@H](O)CC2CC(=O)NC(=O)C2)C(=O)[C@@H](C)C1` [Cycloheximide] came in with a CC50 in [1] of 3.19 µM. For the same compound, the EC50 in data set [2] stood at 2.64 µM; in data set [3], 5.21 µM.

As for `CNCCCN1c2ccccc2CCc2ccccc21` [Desipramine], the CC50 in data set [1] is above 20 µM. Further, the EC50 in [2] amounted to 6.68 µM; in data set [3], 8.75 µM.

`O=C(Nc1ccccc1)OCC(CN1CCCCC1)OC(=O)Nc1ccccc1` (stereo not shown) [Diperodon] displayed a CC50 in data set [1] of 14.5 µM. Further, the EC50 in data set [2] came out at 4.91 µM; in data set [3] it was 1.98 µM.

In data set [1], `COc1cc2nc(N3CCN(C(=O)C4COc5ccccc5O4)CC3)nc(N)c2cc1OC` (stereo not shown) [Doxazosin mesylate] gave a CC50 above 20 µM. Also, the EC50 in [2] was determined as 14 µM; in data set [3] it was 14.5 µM.

In data set [1], `CCCCCCOc1ccccc1C(N)=O` [Exalamide] displayed a CC50 above 20 µM. For the same compound, the EC50 in data set [2] came out at 17.5 µM; in [3], 16.4 µM.

In [1], `COc1ccc2c(c1)[nH]c1c(C)nccc12` [Harmine] displayed a CC50 above 20 µM. In addition, the values for the EC50 in [2] and in data set [3] were 13.5 µM and 13.8 µM, respectively.

Compound `CCN(CC)CCNc1ccc(CO)c2sc3ccccc3c(=O)c12` [Hycanthone] returned a CC50 in data set [1] of 4.19 µM. In addition, the EC50 in data set [2] was 5.76 µM; in data set [3], 5.78 µM.

Consider `COc1c(C)c2c(c(O)c1C/C=C(\C)CCC(=O)OCCN1CCOCC1)C(=O)OC2` [Mycophenolate mofetil], for which the EC50 in data set [5] was below 5 µM; in data set [2], 0.23 µM; in data set [3], 0.27 µM. In addition, the results for the CC50 in data set [6], in data set [7] and in data set [1] were 3.43 µM, 3.01 µM and 3.33 µM, respectively.

Consider `COc1c(C)c2c(c(O)c1C/C=C(\C)CCC(=O)O)C(=O)OC2` [Mycophenolic acid], for which the EC50 is below 5 µM in data set [5], 0.18 µM in [2] and 0.17 µM in data set [3]. For the same compound, the “SI (CC50/EC50), HCoV-NL63” value in [8] was found to be 19.11. In addition, the CC50 was 3.55 µM in data set [6], 3.44 µM in data set [7] and 4.18 µM in data set [1].

`CC[C@H]1/C=C/C=C/C[C@@H](C)[C@H](O)[C@@](C)(O)C(=O)[C@@H](C)[C@H](O)[C@@H](C)C(=O)[C@@H](C)[C@H](O)[C@@H](C)/C=C/C(=O)O[C@@H]2[C@H](C)[C@H](CC1)O[C@]1(CC[C@H](C)[C@H](C[C@@H](C)O)O1)[C@H]2C` [Oligomycin] registered a CC50 in [1] of 6.78 µM. Moreover, the EC50 came out at 2.63 µM in [2] and 6.43 µM in [3].

Take `COc1ccc(Cc2nccc3cc(OC)c(OC)cc23)cc1OC` [Papaverine]: in [1], the CC50 worked out at 12.4 µM. For the same compound, the results for the EC50 in [2] and in data set [3] were 7.32 µM and 11.5 µM, respectively.

In the case of `Nc1ccc(/N=N/c2ccccc2)c(N)n1` [Phenazopyridine], the EC50 in [5] was below 5 µM; in [2] it was 2.02 µM; in data set [3] it was 0.77 µM. Also, the “SI (CC50/EC50), MHV-A59” value in data set [9] is above 25.97. Besides, the CC50 in data set [6], in data set [7] and in data set [1] was above 20 µM throughout.

For the compound `COC(=O)[C@]1(C)CC[C@]2(C)CC[C@]3(C)C4=CC=C5C(=CC(=O)C(O)=C5C)[C@]4(C)CC[C@@]3(C)[C@@H]2C1` [Pristimerin], the CC50 in data set [1] was above 20 µM. Moreover, the figures for the EC50 in [2] and in [3] were 1.63 µM and 9.17 µM, respectively.

Regarding `CN(C)CCCN1c2ccccc2Sc2ccccc21` [Promazine], the CC50 in [1] was above 20 µM. The EC50 is 1.37 µM in data set [2] and 0.51 µM in data set [3].

`Cc1cc(/C=C/c2ccc3cc(N(C)C)ccc3[n+]2C)c(C)n1-c1ccccc1` [Pyrvinium pamoate]: the EC50 in [5] is below 5 µM; in [2] it was 3.35 µM.

`CC[C@@H](C(=O)[C@@H](C)[C@@H](O)[C@H](C)[C@@H]1O[C@@H]([C@@H](CC)C(=O)O)CC[C@@H]1C)[C@H]1O[C@]2(C=C[C@@H](O)[C@]3(CC[C@@](C)([C@H]4CC[C@](O)(CC)[C@H](C)O4)O3)O2)[C@H](C)C[C@@H]1C` [Salinomycin sodium]: in data set [1], the CC50 was 2.45 µM. The EC50 worked out at 5.71 µM in [2] and 5.16 µM in [3].

In [1], `COc1ccc2cc1Oc1ccc(cc1)C[C@H]1c3cc(c(OC)cc3CCN1C)Oc1c(OC)c(OC)cc3c1[C@H](C2)N(C)CC3` [Tetrandrine] returned a CC50 above 20 µM. In addition, the EC50 in [2] was 2.05 µM; in [3], 4.81 µM.

As for `Clc1ccccc1CN1CCc2sccc2C1` [Ticlopidine], the CC50 in data set [1] was above 20 µM. Further, the EC50 in data set [2] turned out to be 15.7 µM; in data set [3] it was 14.3 µM.

Take `CCN(CC)CCOc1ccc2c(c1)C(=O)c1cc(OCCN(CC)CC)ccc1-2` [Tilorone]: the CC50 in [1] was above 20 µM. In addition, the EC50 in data set [2] was found to be 6.89 µM; in data set [3], 16.1 µM.

Turning to `CC(C)[C@@H]1NC(=O)[C@H](C)OC(=O)[C@@H](C(C)C)NC(=O)[C@@H](C(C)C)OC(=O)[C@H](C(C)C)NC(=O)[C@H](C)OC(=O)[C@@H](C(C)C)NC(=O)[C@@H](C(C)C)OC(=O)[C@H](C(C)C)NC(=O)[C@H](C)OC(=O)[C@@H](C(C)C)NC(=O)[C@@H](C(C)C)OC1=O` [Valinomycin], the CC50 in data set [1] was found to be 5.11 µM. Also, the EC50 in data set [2] stood at 1.89 µM; in data set [3] it was 6.78 µM.

Consider Monensin sodium, for which the EC50 in [5] is below 5 µM; in data set [10] it was 3.81 µM; in [8] (read-out: HCoV-NL63 EC50), 1540 nM; in data set [11], 3.27 µM; in data set [9] (read-out: MHV-A59 EC50) it was 180 nM.

The values are drawn from article PMC6613765 (Journal of Virology, 2019).
